Here are results for 23 compounds from ChEMBL document CHEMBL1152762, “Medicinal chemistry approaches to the inhibition of dipeptidyl peptidase-4 for the treatment of type 2 diabetes” (Bioorg Med Chem, 2009).

The species named for data set [1] is Rattus norvegicus. The data set can be described thus: animal or person. Conditions: Plasma, po, 6 h, read-out: INH.
For data set [2], the species on record is Rattus norvegicus. Nature of the data set: animal or person. Conditions: Plasma, po, 10 h, read-out: INH.
The target in data set [3] is Dipeptidyl peptidase 4 (Homo sapiens, UniProt P27487).
Sequence of Dipeptidyl peptidase 4 (Homo sapiens, UniProt P27487) (P27487 whole entry): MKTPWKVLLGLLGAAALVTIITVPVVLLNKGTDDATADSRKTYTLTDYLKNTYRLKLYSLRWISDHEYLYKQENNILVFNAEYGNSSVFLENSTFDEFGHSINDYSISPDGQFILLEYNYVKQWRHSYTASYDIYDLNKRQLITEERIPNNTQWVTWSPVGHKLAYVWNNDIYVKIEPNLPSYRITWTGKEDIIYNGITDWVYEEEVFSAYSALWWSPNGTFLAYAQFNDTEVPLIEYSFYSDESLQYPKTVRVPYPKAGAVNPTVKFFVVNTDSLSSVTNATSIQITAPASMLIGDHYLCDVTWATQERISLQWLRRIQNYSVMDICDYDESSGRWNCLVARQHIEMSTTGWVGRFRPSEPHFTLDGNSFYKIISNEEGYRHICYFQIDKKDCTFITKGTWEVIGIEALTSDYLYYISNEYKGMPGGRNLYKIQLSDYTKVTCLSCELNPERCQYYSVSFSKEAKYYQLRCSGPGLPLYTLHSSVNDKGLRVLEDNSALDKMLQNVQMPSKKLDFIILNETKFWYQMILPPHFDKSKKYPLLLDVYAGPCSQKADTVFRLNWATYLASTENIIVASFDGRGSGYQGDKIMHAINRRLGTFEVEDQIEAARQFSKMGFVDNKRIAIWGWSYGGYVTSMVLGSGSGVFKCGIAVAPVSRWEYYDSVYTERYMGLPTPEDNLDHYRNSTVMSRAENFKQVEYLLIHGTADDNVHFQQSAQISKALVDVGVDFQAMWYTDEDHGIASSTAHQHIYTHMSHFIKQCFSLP
Data set [4] is filed under the species Rattus norvegicus. Nature of the data set: animal or person. Conditions: Plasma, 0.5 h, read-out: INH.
Data set [5] is filed under the species Rattus norvegicus. The data set can be described thus: animal or person. Conditions: Plasma, 4 h, read-out: INH.
For data set [6], the system named is Rattus norvegicus. Nature of the data set: Ex-vivo inhibition of DPP4 in rat plasma at 10 mg/kg, po after 12 hrs. It counts as functional.
Data set [7] deals with T1, Dipeptidyl peptidase 2 (Homo sapiens, UniProt Q9UHL4).
Another data set deals with Dipeptidyl peptidase 9 (Homo sapiens, UniProt Q86TI2). The data set can be described thus: Inhibition of DPP9.
Sequence of Dipeptidyl peptidase 9 (Q86TI2 whole entry): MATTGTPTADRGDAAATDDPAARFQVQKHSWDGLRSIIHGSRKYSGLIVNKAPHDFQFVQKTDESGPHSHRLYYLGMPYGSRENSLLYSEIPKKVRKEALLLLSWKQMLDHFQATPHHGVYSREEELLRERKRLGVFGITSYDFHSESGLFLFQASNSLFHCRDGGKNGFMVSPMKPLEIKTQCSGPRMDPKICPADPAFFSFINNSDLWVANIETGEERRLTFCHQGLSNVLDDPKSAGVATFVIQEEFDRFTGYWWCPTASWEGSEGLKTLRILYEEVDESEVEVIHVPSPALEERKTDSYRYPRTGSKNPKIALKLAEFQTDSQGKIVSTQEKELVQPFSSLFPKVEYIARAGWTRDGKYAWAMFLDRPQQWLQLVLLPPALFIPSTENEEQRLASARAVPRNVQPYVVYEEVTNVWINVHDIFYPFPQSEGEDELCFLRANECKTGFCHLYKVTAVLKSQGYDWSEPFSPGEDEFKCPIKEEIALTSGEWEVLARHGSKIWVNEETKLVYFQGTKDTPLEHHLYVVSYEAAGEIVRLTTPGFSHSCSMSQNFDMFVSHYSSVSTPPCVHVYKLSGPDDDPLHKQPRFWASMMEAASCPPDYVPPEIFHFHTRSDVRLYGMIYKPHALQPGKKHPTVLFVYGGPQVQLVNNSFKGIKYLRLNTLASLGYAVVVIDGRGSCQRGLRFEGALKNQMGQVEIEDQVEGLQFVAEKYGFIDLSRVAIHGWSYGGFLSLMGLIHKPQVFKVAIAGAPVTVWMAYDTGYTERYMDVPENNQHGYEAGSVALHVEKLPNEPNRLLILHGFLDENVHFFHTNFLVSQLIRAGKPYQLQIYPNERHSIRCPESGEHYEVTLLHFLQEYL
The target of the next data set is Dipeptidyl peptidase 8 (Homo sapiens, UniProt Q6V1X1).
Sequence of Dipeptidyl peptidase 8 (Q6V1X1 whole entry): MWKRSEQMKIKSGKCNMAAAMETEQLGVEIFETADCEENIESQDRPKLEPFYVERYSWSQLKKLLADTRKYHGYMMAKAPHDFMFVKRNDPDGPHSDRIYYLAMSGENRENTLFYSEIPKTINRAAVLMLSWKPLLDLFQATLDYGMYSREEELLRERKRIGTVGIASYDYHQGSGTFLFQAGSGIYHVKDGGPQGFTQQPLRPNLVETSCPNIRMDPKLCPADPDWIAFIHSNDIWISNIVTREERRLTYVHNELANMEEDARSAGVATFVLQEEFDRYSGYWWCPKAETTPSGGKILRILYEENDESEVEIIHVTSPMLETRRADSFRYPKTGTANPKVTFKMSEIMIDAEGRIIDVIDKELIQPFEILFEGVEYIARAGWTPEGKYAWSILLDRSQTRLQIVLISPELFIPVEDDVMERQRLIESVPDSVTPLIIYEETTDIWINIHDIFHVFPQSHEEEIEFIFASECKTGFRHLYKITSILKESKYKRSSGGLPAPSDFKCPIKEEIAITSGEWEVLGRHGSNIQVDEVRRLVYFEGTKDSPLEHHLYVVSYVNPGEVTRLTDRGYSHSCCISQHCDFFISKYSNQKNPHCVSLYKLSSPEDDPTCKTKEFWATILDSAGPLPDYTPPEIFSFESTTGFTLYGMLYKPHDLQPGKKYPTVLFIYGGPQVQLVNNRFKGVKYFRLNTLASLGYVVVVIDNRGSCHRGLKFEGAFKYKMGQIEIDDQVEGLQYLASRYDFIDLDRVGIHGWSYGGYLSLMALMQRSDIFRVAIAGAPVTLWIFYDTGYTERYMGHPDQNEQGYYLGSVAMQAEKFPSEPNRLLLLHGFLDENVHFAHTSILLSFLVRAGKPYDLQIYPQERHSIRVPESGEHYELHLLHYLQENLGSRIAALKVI
The nature of data set [8]: Oral bioavailability in cynomolgus monkey. It counts as ADME, organism-based, Macaca fascicularis. Conditions: in vivo.
In data set [9] the target is T1, Dipeptidyl peptidase 2. The data set can be described thus: Inhibition of DPP7.
The species entered for data set [10] is Rattus norvegicus.
Data set [11] can be described thus: Selectivity for DPP4 over DPP8.
In another data set the test system is Mus musculus. The data set can be described thus: Reduction of glucose excursion in C57BL6/N mouse at 3 mg/kg, po. Also on record: scale not given: the % may be the effect or the level left. The format is functional.
The target of data set [12] is Dipeptidyl peptidase 4 (Sus scrofa, UniProt P22411). Nature of the data set: Inhibition of pig kidney DPP4.
Sequence of Dipeptidyl peptidase 4 (Sus scrofa, UniProt P22411) (P22411 whole entry): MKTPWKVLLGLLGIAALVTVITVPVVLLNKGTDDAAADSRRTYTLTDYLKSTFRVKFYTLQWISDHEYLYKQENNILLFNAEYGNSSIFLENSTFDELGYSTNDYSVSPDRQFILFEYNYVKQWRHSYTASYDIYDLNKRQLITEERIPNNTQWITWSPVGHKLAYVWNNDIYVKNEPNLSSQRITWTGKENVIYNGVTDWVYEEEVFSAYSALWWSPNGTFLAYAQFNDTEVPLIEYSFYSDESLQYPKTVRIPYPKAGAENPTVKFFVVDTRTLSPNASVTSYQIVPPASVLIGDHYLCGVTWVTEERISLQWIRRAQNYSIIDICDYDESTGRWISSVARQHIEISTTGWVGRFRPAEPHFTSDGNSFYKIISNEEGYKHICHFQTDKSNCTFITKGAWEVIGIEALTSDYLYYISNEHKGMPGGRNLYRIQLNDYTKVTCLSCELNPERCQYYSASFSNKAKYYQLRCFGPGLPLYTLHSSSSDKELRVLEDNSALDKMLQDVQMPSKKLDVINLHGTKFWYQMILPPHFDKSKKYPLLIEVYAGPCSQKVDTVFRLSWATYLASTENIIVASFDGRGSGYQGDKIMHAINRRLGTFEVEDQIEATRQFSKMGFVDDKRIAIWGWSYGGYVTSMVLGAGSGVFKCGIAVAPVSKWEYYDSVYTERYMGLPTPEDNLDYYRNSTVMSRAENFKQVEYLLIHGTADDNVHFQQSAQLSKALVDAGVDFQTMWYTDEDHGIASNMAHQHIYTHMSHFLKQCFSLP
Data set [13] addresses T2, Dipeptidyl peptidase 4 (Rattus norvegicus, UniProt P14740).
The nature of data set [14]: Oral bioavailability in Sprague-Dawley rat at 10 mg/kg. Conditions: in vivo. The format is ADME, organism-based.
Data set [15] in a line: Half life in Sprague-Dawley rat at 10 mg/kg, po. It counts as ADME, organism-based. Also on record: dose 10 mg/kg, route oral. Conditions: in vivo.
Data set [16] in a line: Cmax in Wistar rat at 1 mg/kg after 10 mins. The format is ADME, organism-based. Also noted: dose 1 mg/kg. Conditions: in vivo.
In data set [17] the target is Dipeptidyl peptidase 4 (Mus musculus, UniProt P28843). The data set can be described thus: Inhibition of mouse DPP4.
Sequence of Dipeptidyl peptidase 4 (Mus musculus, UniProt P28843) (P28843 whole entry): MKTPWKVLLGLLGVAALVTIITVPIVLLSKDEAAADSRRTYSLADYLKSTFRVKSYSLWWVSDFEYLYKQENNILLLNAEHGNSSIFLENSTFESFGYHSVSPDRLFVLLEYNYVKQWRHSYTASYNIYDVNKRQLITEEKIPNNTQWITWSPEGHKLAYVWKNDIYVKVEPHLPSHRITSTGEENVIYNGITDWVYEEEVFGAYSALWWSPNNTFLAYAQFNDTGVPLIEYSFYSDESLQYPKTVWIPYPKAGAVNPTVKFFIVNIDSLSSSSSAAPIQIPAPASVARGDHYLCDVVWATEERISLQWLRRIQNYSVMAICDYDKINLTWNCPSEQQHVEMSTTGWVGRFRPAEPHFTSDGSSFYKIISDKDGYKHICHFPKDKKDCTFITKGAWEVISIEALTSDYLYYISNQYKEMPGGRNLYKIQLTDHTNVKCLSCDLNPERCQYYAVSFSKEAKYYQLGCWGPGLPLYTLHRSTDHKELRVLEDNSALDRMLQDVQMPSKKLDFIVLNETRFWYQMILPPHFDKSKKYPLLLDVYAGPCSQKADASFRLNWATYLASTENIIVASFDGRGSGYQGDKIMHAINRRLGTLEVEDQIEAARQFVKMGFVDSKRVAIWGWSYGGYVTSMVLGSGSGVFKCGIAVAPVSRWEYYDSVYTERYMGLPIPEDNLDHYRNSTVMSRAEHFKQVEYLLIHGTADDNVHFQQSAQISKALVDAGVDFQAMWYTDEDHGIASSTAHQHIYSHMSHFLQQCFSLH
Data set [18] is filed under the species Rattus norvegicus. Nature of the data set: animal or person. Conditions: Plasma, 6 h, read-out: INH.
Data set [19] deals with T2, Dipeptidyl peptidase 4. The source holds these as a separate data set.
The target of a further data set is T3, Prolyl endopeptidase FAP (Homo sapiens, UniProt Q12884).
T3 sequence (Q12884 whole entry): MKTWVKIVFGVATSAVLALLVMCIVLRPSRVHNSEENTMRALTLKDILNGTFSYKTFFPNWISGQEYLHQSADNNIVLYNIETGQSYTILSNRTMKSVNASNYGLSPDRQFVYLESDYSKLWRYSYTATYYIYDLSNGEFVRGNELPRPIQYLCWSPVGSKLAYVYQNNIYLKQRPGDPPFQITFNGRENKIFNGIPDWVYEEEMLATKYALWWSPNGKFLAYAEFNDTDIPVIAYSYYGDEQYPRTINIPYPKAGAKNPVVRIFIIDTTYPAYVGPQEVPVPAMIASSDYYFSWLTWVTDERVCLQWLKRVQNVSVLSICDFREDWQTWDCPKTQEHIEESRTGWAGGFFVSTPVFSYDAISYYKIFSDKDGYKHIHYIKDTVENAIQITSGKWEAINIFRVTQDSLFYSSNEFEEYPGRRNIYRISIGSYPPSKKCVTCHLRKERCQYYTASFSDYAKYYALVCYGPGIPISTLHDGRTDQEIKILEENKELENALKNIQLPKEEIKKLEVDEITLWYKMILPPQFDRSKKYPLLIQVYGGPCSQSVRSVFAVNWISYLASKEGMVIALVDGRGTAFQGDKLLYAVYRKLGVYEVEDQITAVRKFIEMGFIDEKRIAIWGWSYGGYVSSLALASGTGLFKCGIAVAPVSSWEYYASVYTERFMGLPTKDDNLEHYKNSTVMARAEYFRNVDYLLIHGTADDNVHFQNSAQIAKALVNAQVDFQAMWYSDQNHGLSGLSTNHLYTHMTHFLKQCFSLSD
The data set can be described thus: Inhibition of FAP.

Data set [20] can be described thus: Stability in pH 7.4 buffer. It counts as physicochemical.

T2 sequence (P14740 whole entry): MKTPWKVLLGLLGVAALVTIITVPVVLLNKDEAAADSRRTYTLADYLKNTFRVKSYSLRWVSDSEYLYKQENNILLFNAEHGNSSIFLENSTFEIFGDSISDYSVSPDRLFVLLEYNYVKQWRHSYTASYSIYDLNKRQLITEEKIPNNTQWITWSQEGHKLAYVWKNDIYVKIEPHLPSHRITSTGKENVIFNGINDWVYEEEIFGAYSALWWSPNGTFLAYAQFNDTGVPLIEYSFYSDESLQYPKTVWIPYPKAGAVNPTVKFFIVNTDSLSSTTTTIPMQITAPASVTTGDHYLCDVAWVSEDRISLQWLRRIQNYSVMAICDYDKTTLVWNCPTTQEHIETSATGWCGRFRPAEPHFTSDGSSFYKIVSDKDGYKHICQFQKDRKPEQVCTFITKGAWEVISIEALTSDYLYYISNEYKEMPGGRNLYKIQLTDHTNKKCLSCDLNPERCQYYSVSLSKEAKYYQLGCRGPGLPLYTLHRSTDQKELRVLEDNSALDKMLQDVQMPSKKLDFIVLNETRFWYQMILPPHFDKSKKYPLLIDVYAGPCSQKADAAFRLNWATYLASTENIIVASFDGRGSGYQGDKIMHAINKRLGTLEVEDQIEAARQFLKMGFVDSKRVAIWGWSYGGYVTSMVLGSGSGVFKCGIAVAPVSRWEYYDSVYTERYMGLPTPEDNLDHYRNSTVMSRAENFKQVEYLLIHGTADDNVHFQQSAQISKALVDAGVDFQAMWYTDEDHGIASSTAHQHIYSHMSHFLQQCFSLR

Turning to `Cc1ccc(O)c(C)c1[C@@H]1CN[C@H](C(=O)N2CCC[C@H]2C#N)C1`, the inhibition in vivo at 1 mg/kg is 95% in the data set listed under Rattus norvegicus [1] and 83% in the data set filed under Rattus norvegicus [2].
In the case of `CC(N)/C(F)=C1\CCC[C@@H]1C#N` (stereo partly specified), the IC50 on Dipeptidyl peptidase 4 [3] came out at 7690 nM.
Regarding `N#C[C@@H]1C[C@@H]2C[C@@H]2N1C(=O)[C@@H](N)C12CC3CC(CC(O)(C3)C1)C2` [SAXAGLIPTIN ANHYDROUS], the inhibition in vivo at 4 µmol/kg in the data set listed under Rattus norvegicus [4] and in the data set listed under Rattus norvegicus [5] was 87% throughout.
Regarding `COc1ccccc1N1CCc2nc(C)c(CN)c(-c3ccc(Cl)cc3Cl)c2C1=O`, the IC50 against Dipeptidyl peptidase 4 [3] was found to be 2.28 nM.
With `N#Cc1ccccc1Cn1c(N2CCC[C@@H](N)C2)nc2ccc(F)cc2c1=O`, in the data set with Rattus norvegicus [6], the inhibition in vivo at 10 mg/kg was determined as 50%.
Consider `CN(C)C(=O)[C@@H](c1ccc(C2=CN3N=CNC3C=C2)cc1)[C@H](N)C(=O)N1CC[C@H](F)C1` (stereo partly specified), for which the IC50 against Dipeptidyl peptidase 2 [7], at Dipeptidyl peptidase 9 and at Dipeptidyl peptidase 8 was more than 100000 nM throughout.
By Ki is commonly meant a dissociation constant, usually derived from enzyme kinetics or from competition with a known ligand. In the case of `C[C@H](N)C(=O)N1CCC[C@H]1B(O)O`, at Dipeptidyl peptidase 2 [7], the Ki was found to be 125 nM.
A word on the bioavailability: it is dose-corrected exposure relative to a reference, in per cent. With `N#C[C@@H]1CCCN1C(=O)CNC12CC3CC(CC(O)(C3)C1)C2` [VILDAGLIPTIN], the bioavailability in data set [8] was more than 90%.
With `O=C(CNC12CC3CC(CC(C3)C1)C2)N1CCC[C@H]1B(O)O`, the IC50 worked out at 8 nM on Dipeptidyl peptidase 4 [3] and 420 nM at Dipeptidyl peptidase 2 [9].
Turning to `CC(c1nc(-c2ccc(S(C)(=O)=O)cc2Cl)no1)[C@H](N)C(F)=C1CCCC1.O=C(O)C(F)(F)F` (stereo partly specified), in the data set listed under Rattus norvegicus [10], the IC50 amounted to 62%.
In the case of `CC(C)(C)C(NC(=O)C[C@@H](N)C(=O)N1CCC[C@H]1C#N)c1ccccc1` (stereo partly specified), the Selectivity ratio in [11] came to 53. In addition, the IC50 against Dipeptidyl peptidase 4 [3] came to 251 nM.
Take `N[C@H](C(=O)N1CC[C@H](F)C1)[C@H]1CC[C@H](NS(=O)(=O)c2ccc(F)cc2F)CC1`: the Activity in the data set with Mus musculus was determined as 42%.
With `N#Cc1ccc(NCCNCC(=O)N2N=CCC2C#N)nc1` (stereo unspecified), the figures for the IC50 at Dipeptidyl peptidase 4 [12] and on Dipeptidyl peptidase 4 [13] were 490 nM and 780 nM, respectively.
The term half-life denotes the time in which the quantity being followed falls by half. In the case of `N#Cc1ccc(N[C@@H]2CN[C@H](C(=O)N3CCSC3)C2)nc1`, the bioavailability in data set [14] is 83.9%. Moreover, the half-life in [15] is 5.27 h. Also, the IC50 against Dipeptidyl peptidase 4 [13] was determined as 30.4 nM.
A word on the Cmax: it is the maximum level reached in the sampled fluid or tissue. Compound `CC[C@H](C)[C@H](N)C(=O)N1C[C@@H](F)C[C@H]1C#N` had a Cmax in [16] of 372 ng/mL.
`CC1(NCC(=O)N2C[C@H](F)C[C@@H]2C#N)CCN(S(C)(=O)=O)CC1` displayed an IC50 against Dipeptidyl peptidase 4 [17] of 2.6 nM.
As for `COc1ccc(CS(=O)(=O)C(C)(C)[C@H](N)C(=O)N2C[C@@H](F)C[C@H]2C#N)cc1`, the inhibition in vivo at 1 mg/kg in the data set filed under Rattus norvegicus [18] is 84%.
On to `CC(C)=CCN1C(C2CC[C@H]3NCC[C@@H]23)=NC2C1C(=O)N(CC(=O)c1ccccc1)C(=O)N2C` (stereo partly specified), for which the IC50 at Dipeptidyl peptidase 4 [3] amounted to 18 nM.
In turn, `N#Cc1ccc(N[C@@H]2CNC(C(=O)N3CCC[C@H]3C#N)C2)cc1C#N` (stereo partly specified) returned an IC50 at Dipeptidyl peptidase 4 [19] of 0.17 nM.
Take `CC(C)[C@H](Oc1ccc(CNC(=O)[C@@H]2CCCN2C(=O)C[C@H](N)Cc2cc(F)ccc2F)cc1)C(=O)O`: the IC50 against Dipeptidyl peptidase 2 [7] was more than 100000 nM; against Dipeptidyl peptidase 9, more than 86000 nM; at Dipeptidyl peptidase 8, more than 100000 nM; at Dipeptidyl peptidase 4 [3] it was 0.48 nM; on Prolyl endopeptidase FAP it was 21000 nM.
Consider `N[C@H](C(=O)N1CCCC1)[C@H]1CC[C@H](NS(=O)(=O)c2ccc(F)cc2F)CC1`, for which the Activity in the data set with Mus musculus turned out to be 36%.
In the case of `N#C[C@@H]1CCCN1C(=O)[C@@H](N)C1CCCCC1`, in data set [20], the half-life was more than 48 h.
The compound `CC(N)/C(F)=C1\CCC[C@@H]1C#N` (single isomer, unassigned; diastereomer 2) showed an IC50 against Dipeptidyl peptidase 4 [3] of 6030 nM.
